Assay results taken from patent publication US6083941A, “Inhibition of NMDA receptor activity by pregnenolone sulfate derivatives” (Trustees of Boston University, priority 1998, dated 2000).
Values joined by “and” are separate entries in the source; they are usually repeats but may differ in a detail not shown here. Equal entries are not always repeated. Structures can show the parent of a compound that is named as a salt. Where two headings read alike, the source gives them in different places.

Assays:
Assay type in all cases: cell-based
[1] = test system: NMDA receptor; assay: Whole cell patch clamp, NMDA-induced current in cultured chick spinal cord neurons; details: for mean NMDA induced current: control cultures 121±16 pA
Experimental: Cultures of dissociated spinal cord neurons were prepared as previously described (Farb, D. H., et al., J. Cell Biol., 80:651-661 (1979)). Briefly, the dissociated cells from 7-day chick embryos were plated on collagen-coated 35-mm tissue culture dishes in Eagle's minimum essential medium supplemented with 2.4 mM glutamine, 10% (v/v) heat-inactivated horse serum, 5% (v/v) chick embryo extract and antibiotics. Cultures were maintained in a humidified atmosphere of 5% CO2, 95% air at 37°. Cytarabine (1 μM) was added to the culture medium after 36 hr. of the initial plating to inhibit the proliferation of non-neuronal cells. One day later, this medium was replaced with a similar medium supplemented with 20.5 mM glucose, 19 mM KCl, and 2.5% chick embryo extract. Fresh medium was added twice weekly. Cultured neurons were used in experiments within 2-4 weeks after plating.
Experiments were carried out in 35-mm tissue culture dishes on the stage of an inverted phase contrast microscope. Whole cell currents were recorded by the whole cell variant of the patch clamp technique (Hamill, O. P., et al., Pfagers Arch. 891:85-100 (1981)). Patch electrodes had tip openings of about […] and resistances of 3-8 M.OMEGA. using an intracellular solution comprised of the following (in mM): 140 CsCl, 11 EGTA, and 10 HEPES (pH adjusted to 7.2 with CsOH). In experiments in which a high concentration of glycine was used, the intracellular solution was replaced with a low chloride (10 mM) pipette solution. This solution contained the following (in mM): 140 potassium gluconate, 10 KCl, 8 sodium gluconate, 11 EGTA, and 10 HEPES (pH adjusted to 7.2 with KOH). To prevent a marked run-down of NMDA-induced current at high NMDA concentrations, 4 mM potassium ATP was included in the intracellular solution. The bath solution contained the following (in mM): 150 NaCl, 4 KCl, 1 CaCl2, and 10 HEPES (pH adjusted to 7.2 with NaOH). No glycine was added to the solutions containing NMDA, because no additional glycine was required to obtain a robust NMDA response, and there was no effect of a maximal concentration (10 μM) of glycine on 5β3αS inhibition of the NMDA response. All experiments were performed at room temperature (23-25° C.).
Recordings were made using an Axopatch 1B patch clamp apparatus (Axon Instruments, Burlingame, Calif.). Cells with series resistances greater than 10 M.OMEGA. were rejected. After partial compensation, series resistances were between 3.5 and 6 M.OMEGA.. The holding potential was maintained at -70 mV unless otherwise noted. Currents were filtered at 1 kHz using an eight-pole Bessel filter (-3 dB) and digitized ([…]) using an on-line data acquisition system (pClamp, Axon Instruments).
Drug solutions were applied to single neurons by pressure ejection (15 psi) from seven-barrel pipettes. Seven-barrel pressure pipettes were positioned approximately […] from the neuronal soma. Under these conditions, the drug solution in the pressure pipette rapidly and effectively replaces the solution surrounding the target neurons with less than 10% dilution (Choi, D. W., et al., Nature (Lond.) 269:342-344 (1977); Chan, C. Y., et al., Life Sci., 83:2061-2069 (1983); Chan, C. Y. and Farb, D. H., J. Neurosci., 5:2365-2373 (1985)). All drugs were obtained from Sigma, with the except of AMPA hydrobromide (Research Biochemicals) and steroids (Steraloids). Stock solutions of steroids were prepared in dimethyl sulfoxide, the final concentration of which was 0.5% (v/v). To obviate the possible effects of dimethyl sulfoxide on the relevant agonist-induced currents, all other drug solutions including NMDA, kainate, AMPA and external buffer (in the pressure pipette) also contained 0.5% dimethyl sulfoxide. […]

[2] = test system: glutamate receptor-mediated spontaneous EPSCs in rat hippocampal neurons; assay: Spontaneous excitatory postsynaptic currents (EPSCs), whole-cell recording in cultured hippocampal neurons
Experimental: Primary cultures of hippocampal neurons were prepared from embryonic day 18 rats. Cultured neurons were used in experiments 2-3 weeks after plating.
Spontaneous excitatory postsynaptic currents were recorded by the whole-cell variant of the patch clamp technique. The pipet solution usually contained (in mM) KCl 10, EGTA 11, sodium gluconate 3, potassium gluconate 140 and HEPES 10, adjusted to pH 7.2 with KOH. The bath solution contained (in mM) NaCl 150, KCl 4, CaCl2 1, and HEPES 10, adjusted to pH 7.2 with NaOH. Because NMDA-induced currents are subject to voltage-dependent block by extracellular Mg^2+, no magnesium salts were added to the bath solution. All records were made with the cell membrane potential clamped at -70 mV, which is very close to the Cl- equilibrium potential. Therefore, IPSCs are not expected to be observed and spontaneous activity should consist of EPSCs. The complete blockage of spontaneous activity by the co-application of the NMDA receptor antagonist APV and the non-NMDA receptor antagonist DNQX argues that the observed spontaneous activity is glutamate receptor-mediated.
Drug solutions were applied to single neurons by pressure ejection (15 psi) from 7-barrel pipets (tip opening ~3-5 μm) positioned ~50 μm from the neuronal soma. In all experiments, neurons received a 40s application of either steroid or steroid plus antagonist(s), followed by 10-20s pulse of external buffer solution.

[3] = test system: NMDA-induced cell death in primary neuronal cultures of rat hippocampal formation; assay: Trypan blue exclusion, NMDA-induced cell death (excitotoxicity) in primary hippocampal cultures; details: Rattus norvegicus, 200 μM 17β-estradiol hemisuccinate
Source text: Trypan blue exclusion was used to evaluate the ability of derivatives of pregnenolone sulfate to inhibit NMDA-induced cell death in primary neuronal cultures of rat hippocampal formation.
Mixed neuronal and glial cultures of hippocampal tissue were derived from fetal rats on day 18 of embryonic development and were maintained in culture for 16 to 24 days (Brewer, G. J., Brain Res., 494: 65-74 (1989)). Care for the animals used in this study was in accordance with institutional guidelines. Hippocampal tissue from Sprague-Dawley rat pups was collected immediately following removal from dams sacrificed with CO2 on embryonic day 18. Cells were dissociated by trituration in Ca^2 +/Mg^2 + free Hank's basic salt solution supplemented with 4.2 mM bicarbonate, 1 mM sodium pyruvate, 20 mM HEPES, 3 mg/ml BSA, and pelleted by centrifugation (900 rpm, 3 min). The resulting pellet was suspended in DMEM supplemented with 2.4 mg/ml BSA, 26.5 mM sodium bicarbonate, 1 mM sodium pyruvate, 20 mM HEPES, 10% FBS, 100 units/ml penicillin, 100 μg/ml streptomycin, and a modification of Brewers B16 defined components (with […] vitamin B12 and without catalase, glutathione, and superoxide dismutase) (Pike, C. J., et al., Neurosci. 13:1676-87 (1993)) and plated onto poly-L-lysine coated 24 well culture dishes (Nunclon) at a density of 15,000 cells/cm^2 and were maintained in a humidified incubator in 5% CO2 /95% air at 37° C. After 5 days in vitro, nonneuronal cell division was inhibited by exposure to 2×10^-6 M cytosine arabinoside for 48 hrs. Cells were subsequently maintained in medium identical to that used for platting without BSA or FBS.
The number of living neurons was determined by assessing the ability of cells to exclude trypan blue 16 hrs. after the addition of drug solutions to the medium of individual culture wells (Dawson, V. L., et al., Proc. Natl. Acad. Sci. USA, 88:6368-6371 (1991)). Drugs were introduced to cultures in 100 μl of conditioned media, collected from experimental cultures just prior to treatment, to a final volume of 0.5 ml. NMDA was dissolved in DMEM at concentrations of 0-5 mM so that addition of 10 μl yielded final concentrations of 0-100 μM. MK-801, a positive control, was dissolved in DMEM at a concentration of 1 mM so that addition of 5 μl yielded a final concentration of 10 μM. Control cultures were exposed only to an equivalent volume of DMEM, and concentration of DMSO (0.5%). The concentrations of the pregnenolone sulfate derivatives were as follows: 10-100 μM 5β3αS, 100 μM 5β3α hemisuccinate and 200 μM 17β-estradiol hemisuccinate.
After exposure to drugs, the medium was replaced by 0.1 M sodium phosphate buffer/0.4% trypan blue. Cell death was assessed by counting the number of trypan blue positive and negative neurons in five high power fields per culture well with an inverted phase contrast microscope using both bright field and phase settings. Cell death is expressed as the ratio of the number of trypan blue positive to total number of cells counted in each well×100 (percent cell death).

[4] = biological target: T1, recombinant NMDA receptors (NR1100 and NR2A subunits) (Rattus norvegicus, UniProt P35439+Q00959); assay: Two electrode voltage-clamp of Xenopus oocytes expressing recombinant NMDA receptors
T1 construct: expressed in transfected cells; host or cells: Xenopus laevis oocytes injected with in vitro transcribed mRNA
T1 sequence (Q00959 23-1464, other chains not shown): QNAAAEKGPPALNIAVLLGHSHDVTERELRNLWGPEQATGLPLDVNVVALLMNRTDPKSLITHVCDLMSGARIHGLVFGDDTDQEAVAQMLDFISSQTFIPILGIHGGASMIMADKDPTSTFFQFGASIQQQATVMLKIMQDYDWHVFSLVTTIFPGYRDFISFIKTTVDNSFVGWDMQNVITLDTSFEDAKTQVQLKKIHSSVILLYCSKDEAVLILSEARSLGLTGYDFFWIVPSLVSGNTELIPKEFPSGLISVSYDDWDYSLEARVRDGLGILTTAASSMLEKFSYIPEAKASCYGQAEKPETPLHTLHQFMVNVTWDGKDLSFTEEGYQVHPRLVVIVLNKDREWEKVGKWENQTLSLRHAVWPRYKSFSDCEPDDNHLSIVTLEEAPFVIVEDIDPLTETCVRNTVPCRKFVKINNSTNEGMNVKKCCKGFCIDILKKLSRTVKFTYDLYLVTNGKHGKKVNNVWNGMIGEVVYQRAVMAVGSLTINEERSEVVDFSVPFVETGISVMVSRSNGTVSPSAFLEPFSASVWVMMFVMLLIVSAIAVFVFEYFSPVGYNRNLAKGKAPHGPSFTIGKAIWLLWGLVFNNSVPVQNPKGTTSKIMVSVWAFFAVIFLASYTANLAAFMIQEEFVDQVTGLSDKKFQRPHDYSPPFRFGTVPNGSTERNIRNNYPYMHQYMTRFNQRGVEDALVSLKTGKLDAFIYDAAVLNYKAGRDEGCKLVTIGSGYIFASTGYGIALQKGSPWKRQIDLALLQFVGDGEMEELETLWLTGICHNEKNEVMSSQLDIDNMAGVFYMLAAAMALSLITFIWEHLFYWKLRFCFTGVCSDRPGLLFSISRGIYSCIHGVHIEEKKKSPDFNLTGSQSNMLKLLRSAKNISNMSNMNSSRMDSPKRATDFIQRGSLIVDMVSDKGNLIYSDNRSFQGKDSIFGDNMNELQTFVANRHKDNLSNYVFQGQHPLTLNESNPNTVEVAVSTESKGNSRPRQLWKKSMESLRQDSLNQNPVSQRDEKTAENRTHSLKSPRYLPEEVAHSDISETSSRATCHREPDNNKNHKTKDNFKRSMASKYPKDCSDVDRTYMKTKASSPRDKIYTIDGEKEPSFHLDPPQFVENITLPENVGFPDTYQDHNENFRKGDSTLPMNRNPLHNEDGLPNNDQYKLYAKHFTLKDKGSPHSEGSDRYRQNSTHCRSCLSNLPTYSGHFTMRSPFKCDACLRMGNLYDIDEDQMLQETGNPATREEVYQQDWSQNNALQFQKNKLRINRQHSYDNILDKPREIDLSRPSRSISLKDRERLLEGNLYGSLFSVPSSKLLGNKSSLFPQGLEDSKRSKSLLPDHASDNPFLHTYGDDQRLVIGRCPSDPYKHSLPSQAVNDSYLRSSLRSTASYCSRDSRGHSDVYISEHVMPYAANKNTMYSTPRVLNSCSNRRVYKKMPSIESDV
Experimental: RNA preparation. mRNA were prepared through in vitro transcription of NR1100 and NR2A cDNAs using the mMessage mMachine kit (Ambion, Tex.). NR1100 and NR2A clones were kindly provided by Dr. Zukin and Dr. Nakanishie.
Xenopus expression system. Female, oocyte positive Xenopus laevis frogs were purchased from Nasco, Inc. (WI). The frogs were kept on a 12/12 light-dark cycle and maintained on a diet of chopped calf liver every 3 days. Prior to surgery, frogs were anesthetized in a 0.15% Tricaine solution (Sigma, Mo.) for 30-45 minutes. Ovarian sections containing the follicular oocytes were removed through a lateral abdominal incision and were immediately placed in calcium-free ND96 solution (in mM):96 NaCl; 1 MgCl2; 2 KCl; 5 Hepes; 2.5 pyruvate (pH adjusted to 7.4 with NaOH). Following a 2 hr. incubation in 0.2% collagenase type II (Sigma, Mo.) at room temperature, individual defolliculated oocytes were transferred into 60×15 mm glass petri dishes containing ND96 solution (in mM): 96 NaCl; 1 MgCl2; 2 KCl; 1.8 CaCl2; 5 Hepes; 2.5 pyruvate (pH adjusted to 7.4 with NaOH). The isolated oocytes were maintained in an incubator at 18° C. On the following date, batches of 20-40 selected oocytes (Dumont stage V and VI) were injected with 50 nl of prepared RNA solution (0.5 ng of NR1 and 12 ng of NR2A mRNAs per oocyte) using an electronic microinjector (Drummond, Pa.). The injected oocytes were used for electrophysiological experiments following 4-10 day incubation at 18° C.
Electrical recording and drug application. The ion current recordings were obtained in two electrodes voltage-clamp mode using an Axoclamp-2A amplifier (Axon Instruments, Inc., CA). The microelectrodes were fabricated with a programmed puller (Sutter Instrument Co., CA) from glass capillaries (Dagan, Minn.) and filled with 3M KCl solution. The resistance of filled microelectrodes was in the range of 2.5-3.5 M.OMEGA.. The oocytes were clamped at a holding potential of -70 mV. The membrane current was filtered at 500 Hz and sampled at 100 Hz frequency. The drugs were applied using a gravity driven external perfusion system. The data acquisition and external perfusion control were done using SuperScopeII software package (GW Instruments, MA). All experiments were performed at room temperature of 22-24° C.
The degree of modulation of the amino acid response by steroids, the percent change, was defined at (I'/I-1)×100%, where I and I' are respectively the agonist-induced currents in the absence and presence of steroid. Throughout, results are expressed as mean±SEM; statistical comparison of groups was carried out using Student's t test.

O[C@H](CS)[C@H](O)CS (racemic) [DTT, dithiothreitol, reference compound] was tested, and the “NMDA current, % of control” value ([1]; 4 mM DTT, after 180 seconds of exposure) was 273±19% and the “mean NMDA induced current” value ([1]; after approximately an hour of exposure to 4 mM DTT) was 326±82 pA.

For CC(=O)[C@H]1CC[C@H]2[C@@H]3CC[C@H]4C[C@@H](OS(=O)(=O)O)CC[C@]4(C)[C@H]3CC[C@]12C [5α3βS, 5α-pregnan-3β-ol-20-one sulfate, reference compound], the “inhibition of the NMDA-induced current” value ([1]; steroid concentration not given) was 1±2.6%.

With CC(=O)[C@H]1CC[C@H]2[C@@H]3CC=C4C[C@@H](OS(=O)(=O)O)CC[C@]4(C)[C@H]3C(=O)C[C@]12C [11-keto PS] the activation at 100 µM ([2]; Rattus norvegicus, Hippocampal neuron, 100 μM steroid, read-out: percentage potentiation of EPSCs) was 19 ± 15% and the “effect on spontaneous EPSCs” value ([2]; cultures of rat hippocampal neurons) was “has no effect on EPSCs”.

Compound C[C@]12CC[C@@H]3c4ccc(OC(=O)CCC(=O)O)cc4CC[C@H]3[C@@H]1CC[C@@H]2O [17β-estradiol hemisuccinate] has an inhibition at 200 µM ([3]; read-out: inhibition of the cell death induced by chronic NMDA) of 40% and an inhibition at 200 µM ([3]; read-out: inhibition of the cell death produced by short term exposure to NMDA) of 65%.

With C[C@]12CC[C@H](OS(=O)(=O)O)CC1=CC[C@@H]1[C@@H]2CC[C@]2(C)C(=O)CC[C@@H]12 [DHEAS, Dehydroepiandrosterone sulfate, reference compound] the “potentiation of the NMDA response” value ([1]; concentration not in the sentence (100 μM in Table 1)) was 28.8±8.8% and 28.8%.

For CCN1C(=O)C=CC1=O [NEM, N-ethylmaleimide, reference compound], the “mean NMDA induced current” value ([1]; 5 min 4 mM DTT, then 2 min 4 mM DTT plus 300 μM NEM) was 367±82 pA.

For CN[C@H](CC(=O)O)C(=O)O [NMDA, N-methyl-D-aspartate], the EC50 [4] was 62 ± 4 µM, the “NMDA nH” value ([1]; in the absence of 5β3αS) was 1.01 and the “NMDA Imax” value ([1]; in the absence of 5β3αS, normalized to the peak current induced by 100 μM NMDA) was 2.56. For the same compound, the EC50 ([1]; read-out: NMDA EC50, in the absence of 5β3αS) was 156 µM.

With CCCCC/C=C\C/C=C\C/C=C\C/C=C\CCCC(=O)O [arachidonic acid, reference compound] the “potentiation of the 30 μM NMDA response” value ([1]; 10 μM arachidonic acid alone) was 120±35% and the “potentiation of the NMDA response” value ([1]; 10 μM arachidonic acid in the presence of 100 μM PS) was 158±22%.

In the case of NCCCNCCCCNCCCN [spermine, reference compound], the “potentiation of the NMDA induced current” value ([1]; 100 μM spermine (maximal)) is reported as 136±33% and the “potentiation of the NMDA induced current” value ([1]; 250 μM spermine) is reported as 67±21%.
